Measurements taken from patent US20260137706A1, “METHODS OF TREATING INFLAMMATORY DISEASES” (INTERLINE THERAPEUTICS, INC., priority 2023, published 2026).
Where two headings read alike, the source gives them in different places.

Tests used:
[1] = tested on: NF-κB pathway (SEAP) in THP1-Dual cells; assay: THP-1 Dual cell SEAP assay (L18-MDP stimulated); format: cell-based; conditions: Homo sapiens, THP1-Dual, read-out: NF-κB THP1 IC50 bin
Outline: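 THP1-Dual cells (~25,000/well) were preincubated 30 min with serially diluted compounds, then stimulated with 10 ng/mL L18-MDP (final) for 20-24 h at 37 °C. Supernatant SEAP was read with QUANTI-Blue at OD 620-655 nm after 2 h. IC50 came from non-linear fits of % inhibition versus DMSO/L18-MDP controls after media-blank subtraction.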

[2] = target: T1, binding of His-XIAP(BIR2)-avi fusion protein to GST-RIPK2 fusion protein (RIPK2/XIAP) (Homo sapiens, UniProt O43353); assay: RIPK2-XIAP binding competition PPI assay (TR-FRET); conditions: for Emax: read-out: PPI Amax bin; for IC50: read-out: PPI IC50 bin
T1 construct: made in house; host or cells: baculovirus infected Sf9 cells
T1 sequence (O43353 1-310 limits assumed): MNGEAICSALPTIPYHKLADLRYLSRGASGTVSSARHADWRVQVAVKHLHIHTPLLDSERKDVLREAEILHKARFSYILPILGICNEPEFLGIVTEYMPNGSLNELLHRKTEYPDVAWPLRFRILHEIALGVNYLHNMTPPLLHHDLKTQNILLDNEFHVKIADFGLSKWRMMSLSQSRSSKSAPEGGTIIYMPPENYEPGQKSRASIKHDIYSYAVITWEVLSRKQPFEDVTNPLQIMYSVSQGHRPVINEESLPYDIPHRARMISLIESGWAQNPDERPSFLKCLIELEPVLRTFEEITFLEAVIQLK
Outline: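 Compounds (in DMSO, 100-fold stock) incubated 120 min at 23 °C with 1 nM GST-RIPK2 (aa 1-310) and 25 nM His-XIAP(BIR2 aa 152-231)-avi, plus anti-His-XL665 and anti-GST-Tb, in pH 7.5 Tris buffer. Read-out: 665/520 nm emission ratio. Normalized to no-inhibitor (0%) and 50 nM GSK583 (−100%); Amax binned A–D.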

[3] = target: T2, GST-RIPK2 fusion protein (human RIPK2, amino acids 1-310) (Homo sapiens, UniProt O43353); assay: RIPK2 binding competition assay (TR-FRET, Tracer 199 displacement); conditions: 10 nM Tracer 199, 1 nM GST-RIPK2, read-out: RIPK2 IC50
T2 construct: made in house; host or cells: baculovirus infected Sf9 cells
T2 sequence (O43353 1-310): as the sequence (O43353 1-310 limits assumed) above
Outline: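 GST-RIPK2 (human aa 1-310, Sf9-expressed; final 1 nM) with Tracer 199 (final 10 nM) and Tb-anti-GST (final 0.5 nM) in Tris pH 7.5 buffer, 45 min at 22 °C. TR-FRET 665/620 nm ratio after 337 nm excitation; normalized to no-inhibitor (0%) and no-protein (−100%), giving IC50.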

[4] = RIPK2/XIAP binding competition PPI assay, Amax
[5] = RIPK2/XIAP binding competition PPI assay

Structure (SMILES)	IC50 [1]	Emax [2, 4]	IC50 [2, 5]	IC50 [3]	Emax [2]
CC(C)(C)S(=O)(=O)c1cn2c(-c3cc4c(F)c[nH]c4nc3F)cnc2cc1OCCO [Example 236, 2-((6-(tert-butylsulfonyl)-3-(3,6-difluoro-1H-pyrrolo[2,3-b]pyridin-5-yl)imidazo[1,2-a]pyridin-7-yl)oxy)ethan-1-ol]	< 50 nM	> 80%	< 1 nM	< 1 nM	–
COc1cc2ncc(-c3cc(F)c(OC)c(NS(=O)(=O)C4COC4)c3)n2cc1S(=O)(=O)C(C)(C)C [Example 142, N-(5-(6-(tert-butylsulfonyl)-7-methoxyimidazo[1,2-a]pyridin-3-yl)-3-fluoro-2-methoxyphenyl)oxetane-3-sulfonamide]	250 to 1000 nM	> 80%	1 to 2.5 nM	1 to 2.5 nM	–
COc1cc2ncc(-c3ccc4c(N)n[nH]c4c3)n2cc1S(=O)(=O)C(C)(C)C [Example 103, 6-(6-(tert-butylsulfonyl)-7-methoxyimidazo[1,2-a]pyridin-3-yl)-1H-indazol-3-amine]	> 1000 nM	< 30%	> 20 nM	> 20 nM	–
COc1cc2ncc(-c3ccc(N)nc3F)n2cc1S(=O)(=O)C(C)(C)CO [Example 58, 2-((3-(6-amino-2-fluoropyridin-3-yl)-7-methoxyimidazo[1,2-a]pyridin-6-yl)sulfonyl)-2-methylpropan-1-ol]	> 1000 nM	> 80%	> 20 nM	> 20 nM	–
COc1cc2ncc(-c3cc(F)c(N)nc3F)n2cc1S(=O)(=O)N(C)C [Example 161, 3-(6-amino-2,5-difluoropyridin-3-yl)-7-methoxy-N,N-dimethylimidazo[1,2-a]pyridine-6-sulfonamide]	> 1000 nM	–	> 20 nM	> 20 nM	> 80%
COc1cc2ncc(-c3cc(F)c(N)nc3F)n2cc1S(=O)(=O)C1(C)CCNCC1 [Example 71, 3,6-difluoro-5-(7-methoxy-6-((4-methylpiperidin-4-yl)sulfonyl)imidazo[1,2-a]pyridin-3-yl)pyridin-2-amine]	> 1000 nM	> 80%	2.5 to 20 nM	2.5 to 20 nM	–
COc1cc2nc(N)c(-c3cc(F)c(N)nc3F)n2cc1S(=O)(=O)C(C)(C)C [Example 40, 3-(6-amino-2,5-difluoropyridin-3-yl)-6-(tert-butylsulfonyl)-7-methoxyimidazo[1,2-a]pyridin-2-amine]	> 1000 nM	55 to 80%	> 20 nM	> 20 nM	–
COc1cc2ncc(-c3cc(F)c(OC)c4[nH]c(C)nc34)n2cc1S(=O)(=O)C(C)(C)C [Example 118, 4-(6-(tert-butylsulfonyl)-7-methoxyimidazo[1,2-a]pyridin-3-yl)-6-fluoro-7-methoxy-2-methyl-1H-benzo[d]imidazole]	50 to 250 nM	55 to 80%	< 1 nM	1 to 2.5 nM	–
COc1cc2ncc(-c3cc(F)c(OC)c(NC(=O)Cc4ccn(C)n4)c3)n2cc1S(=O)(=O)C(C)(C)C [Example 298, N-(5-(6-(tert-butylsulfonyl)-7-methoxyimidazo[1,2-a]pyridin-3-yl)-3-fluoro-2-methoxyphenyl)-2-(1-methyl-1H-pyrazol-3-yl)acetamide]	250 to 1000 nM	55 to 80%	2.5 to 20 nM	2.5 to 20 nM	–
COc1cc2ncc(-c3cccc(NS(=O)(=O)C4CC4)c3)n2cc1S(=O)(=O)C(C)(C)C [Example 146, N-(3-(6-(tert-butylsulfonyl)-7-methoxyimidazo[1,2-a]pyridin-3-yl)phenyl)cyclopropanesulfonamide]	> 1000 nM	> 80%	2.5 to 20 nM	2.5 to 20 nM	–
CCS(=O)(=O)Nc1cc(-c2cnn3cc(OCCO)c(S(=O)(=O)C(C)(C)C)cc23)cc(F)c1OC [Example 130, N-(5-(5-(tert-butylsulfonyl)-6-(2-hydroxyethoxy)pyrazolo[1,5-a]pyridin-3-yl)-3-fluoro-2-methoxyphenyl)ethanesulfonamide]	< 50 nM	55 to 80%	< 1 nM	< 1 nM	–
COC1(COc2cc3ncc(-c4cc(F)c(N)nc4F)n3cc2S(=O)(=O)C(C)(C)C)COC1 [Example 35, 5-(6-(tert-butylsulfonyl)-7-((3-methoxyoxetan-3-yl)methoxy)imidazo[1,2-a]pyridin-3-yl)-3,6-difluoropyridin-2-amine]	250 to 1000 nM	> 80%	2.5 to 20 nM	2.5 to 20 nM	–
C[C@H](O)COc1cn2ncc(-c3cc(Cl)c(N)nc3F)c2cc1S(=O)(=O)C(C)(C)C [Example 46, (S)-1-((3-(6-amino-5-chloro-2-fluoropyridin-3-yl)-5-(tert-butylsulfonyl)pyrazolo[1,5-a]pyridin-6-yl)oxy)propan-2-ol]	50 to 250 nM	> 80%	1 to 2.5 nM	1 to 2.5 nM	–
C[C@@H](CO)COc1cc2ncc(-c3cc(F)c(N)nc3F)n2cc1S(=O)(=O)C(C)(C)C [Example 175, (S)-3-((3-(6-amino-2,5-difluoropyridin-3-yl)-6-(tert-butylsulfonyl)imidazo[1,2-a]pyridin-7-yl)oxy)-2-methylpropan-1-ol]	50 to 250 nM	> 80%	1 to 2.5 nM	1 to 2.5 nM	–
CC(C)(C)S(=O)(=O)c1cn2c(-c3cc(Cl)c(N)nc3F)cnc2cc1OCC(=O)O [Example 299, 2-((3-(6-amino-5-chloro-2-fluoropyridin-3-yl)-6-(tert-butylsulfonyl)imidazo[1,2-a]pyridin-7-yl)oxy)acetic acid]	> 1000 nM	> 80%	> 20 nM	> 20 nM	–
CC1(COc2cc3ncc(-c4cc(F)c(N)nc4F)n3cc2S(=O)(=O)C(C)(C)C)COC1 [Example 26, 5-(6-(tert-butylsulfonyl)-7-((3-methyloxetan-3-yl)methoxy)imidazo[1,2-a]pyridin-3-yl)-3,6-difluoropyridin-2-amine]	50 to 250 nM	> 80%	2.5 to 20 nM	1 to 2.5 nM	–
COc1cc2ncc(-c3cc(F)c(N)nc3F)n2cc1S(=O)(=O)C1(C)CCOCC1 [Example 72, 3,6-difluoro-5-(7-methoxy-6-((4-methyltetrahydro-2H-pyran-4-yl)sulfonyl)imidazo[1,2-a]pyridin-3-yl)pyridin-2-amine]	> 1000 nM	> 80%	> 20 nM	> 20 nM	–
CCCS(=O)(=O)Nc1cc(-c2cnc3cc(OC)c(S(=O)(=O)C(C)(C)CO)cn23)cc(Cl)c1OC [Example 129, N-(3-chloro-5-(6-((1-hydroxy-2-methylpropan-2-yl)sulfonyl)-7-methoxyimidazo[1,2-a]pyridin-3-yl)-2-methoxyphenyl)propane-1-sulfonamide]	50 to 250 nM	> 80%	< 1 nM	< 1 nM	–
Cn1cc(-c2cc3ncc(-c4cc(F)c(N)nc4F)n3cc2S(=O)(=O)C(C)(C)C)cn1 [Example 22, 5-(6-(tert-butylsulfonyl)-7-(1-methyl-1H-pyrazol-4-yl)imidazo[1,2-a]pyridin-3-yl)-3,6-difluoropyridin-2-amine]	250 to 1000 nM	> 80%	2.5 to 20 nM	2.5 to 20 nM	–
CC(C)(C)S(=O)(=O)c1cn2c(-c3cc(F)c(N)nc3F)cnc2cc1OCCN1CCNCC1 [Example 21, 5-(6-(tert-butylsulfonyl)-7-(2-(piperazin-1-yl)ethoxy)imidazo[1,2-a]pyridin-3-yl)-3,6-difluoropyridin-2-amine]	> 1000 nM	> 80%	2.5 to 20 nM	1 to 2.5 nM	–
C[C@@H](O)COc1cn2ncc(-c3cc(Cl)c(N)nc3F)c2cc1S(=O)(=O)C(C)(C)C [Example 254, (R)-1-((3-(6-amino-5-chloro-2-fluoropyridin-3-yl)-5-(tert-butylsulfonyl)pyrazolo [1,5-a]pyridin-6-yl)oxy)propan-2-ol]	50 to 250 nM	> 80%	1 to 2.5 nM	1 to 2.5 nM	–
COc1cc2ncc(-c3cc(F)c(N)nc3F)n2cc1S(=O)(=O)C1(C)CCN(C(=O)OC(C)(C)C)CC1 [Example 70, tert-butyl 4-((3-(6-amino-2,5-difluoropyridin-3-yl)-7-methoxyimidazo[1,2-a]pyridin-6-yl)sulfonyl)-4-methylpiperidine-1-carboxylate]	> 1000 nM	> 80%	> 20 nM	> 20 nM	–
COc1cc2ncc(-c3ccc(NC(C)=O)nc3)n2cc1S(=O)(=O)C(C)(C)C [Example 8, N-(5-(6-(tert-butylsulfonyl)-7-methoxyimidazo[1,2-a]pyridin-3-yl)pyridin-2-yl)acetamide]	> 1000 nM	< 30%	> 20 nM	> 20 nM	–
